In brackets after ≈: the same amount, converted by molar mass. Several values for one entry are separate records, joined by “and”; a condition that tells them apart may be missing. Equal entries are not always repeated. Where two headings read alike, the source gives them in different places.
Experiments:
MtNDH-2 = MtNDH-2 (Mycobacterium tuberculosis, UniProt P95160); experiment: biochemical; parameters: species or system M. tuberculosis; details: MtNDH-2 IC50
MsNDH-2 = MsNDH-2 (Mycolicibacterium smegmatis, UniProt A0QYD6); experiment: Inhibition of MsNDH-2 (NADH oxidation with menadione, absorbance at 340 nm); assay type: biochemical, M. smegmatis
Sequence of MsNDH-2 (A0QYD6 1-457): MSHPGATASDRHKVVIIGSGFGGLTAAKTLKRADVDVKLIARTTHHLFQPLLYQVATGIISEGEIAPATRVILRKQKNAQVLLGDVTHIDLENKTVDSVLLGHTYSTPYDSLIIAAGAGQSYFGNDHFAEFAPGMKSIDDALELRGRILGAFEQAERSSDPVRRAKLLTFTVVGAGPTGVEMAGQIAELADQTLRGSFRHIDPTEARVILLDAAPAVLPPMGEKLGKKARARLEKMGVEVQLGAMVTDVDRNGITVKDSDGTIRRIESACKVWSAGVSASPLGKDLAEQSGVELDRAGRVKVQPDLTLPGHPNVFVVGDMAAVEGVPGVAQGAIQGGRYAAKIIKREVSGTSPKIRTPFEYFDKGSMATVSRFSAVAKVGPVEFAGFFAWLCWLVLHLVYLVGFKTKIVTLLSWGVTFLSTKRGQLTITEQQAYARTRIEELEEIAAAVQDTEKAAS

[1] = system: E. coli (ATCC 25922, wild-type); experiment: MIC on ESKAPE pathogens, E. coli wild-type; assay type: cell-based; details: Escherichia coli, ATCC25922; E. coli ATCC 25922, wild-type; read-out: MIC Ec WT
[2] = system: E. coli (ΔtolC efflux-defective mutant, isogenic to ATCC 25922); experiment: microbe, parasite or virus in culture; assay type: cell-based; details: Escherichia coli, ATCC25922, read-out: MIC Ec ΔtolC
[3] = system: E. coli (D22, lpxC mutant, drug-hypersensitive); experiment: microbe, parasite or virus in culture; assay type: cell-based; details: Escherichia coli, read-out: MIC Ec D22
[4] = system: P. aeruginosa (PAO1, wild-type); experiment: MIC on ESKAPE pathogens, P. aeruginosa wild-type; assay type: cell-based; details: Pseudomonas aeruginosa, PAO1, P. aeruginosa PAO1, wild-type; read-out: MIC Pa WT
[5] = system: P. aeruginosa (PAO750 efflux-defective mutant, isogenic to PAO1); experiment: microbe, parasite or virus in culture; assay type: cell-based; details: Pseudomonas aeruginosa, PAO1, read-out: MIC Pa efflux
[6] = system: A. baumannii (ATCC 19606, wild-type); experiment: MIC on ESKAPE pathogens, A. baumannii; assay type: cell-based; details: Acinetobacter baumannii, ATCC19606; A. baumannii ATCC 19606, wild-type; read-out: MIC Ab WT
[7] = system: S. aureus (ATCC 29213, wild-type); experiment: MIC on ESKAPE pathogens, S. aureus; assay type: cell-based; details: Staphylococcus aureus, ATCC29213
[8] = system: M. tuberculosis strain H37Rv (ATCC 25618); experiment: MIC on M. tuberculosis by resazurin reduction microplate assay (REMA); assay type: cell-based; details: Mycobacterium tuberculosis
[9] = Cytotoxicity on the MRC-5 cell line (resazurin); assay type: cell-based; details: human, MRC-5SV2 cells, MRC-5SV2, 3 days
Method: MRC-5SV2 cells were cultured in Earl’s MEM + 5% FCSi. Assays were performed in 96-well microtiter plates, each well containing about 10^4 cells/well. After 3 days of incubation with or without compounds, cell viability was assessed fluorimetrically after the addition of resazurin (λex 550 nm, λem 590 nm). The results were expressed as % reduction in cell growth/viability compared to untreated control wells and CC50 was determined. Testing/retesting strategy was as described above for HepG2 cells.

[10] = system: K. pneumonia (ATCC 13833, wild-type); experiment: MIC on ESKAPE pathogens, K. pneumoniae
HepG2 cells = details: human, 72 h
[11] = 95% confidence interval in parentheses, 50 nM enzyme, 50 μM menadione, >100: no significant inhibition at 100 μM
[12] = same IC50 given in μg/mL to assist comparisons with MICs
[13] = M. tuberculosis H37Rv, read-out: MIC Mtb
[14] = H37Rv, reference antitubercular agents, read-out: MIC M. tuberculosis

Sequence of MtNDH-2 (P95160 2-463, added parts left off): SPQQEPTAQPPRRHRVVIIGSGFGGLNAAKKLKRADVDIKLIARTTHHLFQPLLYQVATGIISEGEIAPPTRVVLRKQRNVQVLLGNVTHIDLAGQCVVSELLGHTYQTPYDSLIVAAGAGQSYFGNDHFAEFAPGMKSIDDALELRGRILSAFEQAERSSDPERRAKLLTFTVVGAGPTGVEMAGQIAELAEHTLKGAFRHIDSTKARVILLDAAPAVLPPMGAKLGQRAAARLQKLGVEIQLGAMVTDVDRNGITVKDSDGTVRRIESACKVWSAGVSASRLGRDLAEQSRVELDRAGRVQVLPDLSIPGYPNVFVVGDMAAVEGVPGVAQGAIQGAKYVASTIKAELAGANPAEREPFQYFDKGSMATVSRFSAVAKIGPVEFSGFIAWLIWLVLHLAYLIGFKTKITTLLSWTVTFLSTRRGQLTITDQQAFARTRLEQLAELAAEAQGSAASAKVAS

| SMILES | IC50 (MtNDH-2) | IC50 (MsNDH-2; [11]) [µM] | IC50 (MsNDH-2; [12]) [µM] | MIC [1] [µg/mL] | MIC [2] [µg/mL] | MIC [3] [µg/mL] | MIC [4] [µg/mL] | MIC [5] [µg/mL] | MIC [6] [µg/mL] | MIC [7] [µg/mL] | MIC [8, 13] [µg/mL] | IC50 at 3 days ([9]; resazurin) [µM] | IC50 at 3 days ([9]; value in parentheses) [µg/mL] | MIC Kp WT [10] [µg/mL] | MIC [8, 14] [µM] | cytotoxicity HepG2 TD50 (HepG2 cells) [µM] | cytotoxicity HepG2 TD99 (HepG2 cells) [µM] |
| --- | --- | --- | --- | --- | --- | --- | --- | --- | --- | --- | --- | --- | --- | --- | --- | --- | --- |
| CCOc1cc(Nc2ccc3nc(-c4ccc(F)cc4)cc(N)c3c2)nc(N)n1 [Compound 9a, N^6-(2-Amino-6-ethoxypyrimidin-4-yl)-2-(4-fluorophenyl)quinoline-4,6-diamine] | 0.9 µM and 0.896 µM | 5.3 | 5.38 | 64 (≈ 164 µM) | 2 (≈ 5.12 µM) | 4 (≈ 10.2 µM) | > 128 | 16 (≈ 41 µM) | 2 (≈ 5.12 µM) | 2 (≈ 5.12 µM) | 3.4 | 1.6 | 0.6 | 64 (≈ 164 µM) |  |  |  |
| Nc1nc(Nc2ccc3nc(-c4ccc(F)cc4)cc(N)c3c2)cc(OCCO)n1 [Compound 9b, 2-((2-Amino-6-((4-amino-2-(4-fluorophenyl)quinolin-6-yl)amino)pyrimidin-4-yl)oxy)ethan-1-ol] | 2.5 µM and 2.46 µM | 13 | 12.8 | 32 (≈ 78.7 µM) | 8 (≈ 19.7 µM) | 16 (≈ 39.4 µM) | ≥ 64 | 32 (≈ 78.7 µM) | 32 (≈ 78.7 µM) | 16 (≈ 39.4 µM) | 9.8 | 8 | 3.3 | 32 (≈ 78.7 µM) |  |  |  |
| Nc1cc(-c2ccc(F)cc2)nc2ccc(Nc3cc(N4CCNCC4)ncn3)cc12 [Compound 15, 2-(4-Fluorophenyl)-N^6-(6-(piperazin-1-yl)pyrimidin-4-yl)quinoline-4,6-diamine] | 6 µM and 6.02 µM | 23 | 20.9 | > 64 | 16 (≈ 38.5 µM) | 16 (≈ 38.5 µM) | 32 (≈ 77 µM) | 8 (≈ 19.3 µM) | > 64 | > 64 | > 42 | 1.7 | 0.7 | >64 |  |  |  |
| CO[C@H]1/C=C/O[C@@]2(C)Oc3c(C)c(O)c4c(O)c(c(/C=N/N5CCN(C)CC5)c(O)c4c3C2=O)NC(=O)/C(C)=C\C=C\[C@H](C)[C@H](O)[C@@H](C)[C@@H](O)[C@@H](C)[C@H](OC(C)=O)[C@@H]1C [Rifampicin, reference compound] |  |  |  |  |  |  |  |  |  |  |  |  |  |  | 0.0003 | 75 | ≥ 100 |
| COc1nc2ccc(Br)cc2cc1[C@@H](c1ccccc1)[C@@](O)(CCN(C)C)c1cccc2ccccc12 [bedaquiline, reference compound] |  |  |  |  |  |  |  |  |  |  |  |  |  |  | 0.37 | 50 | ≥ 100 |
